Assay results taken from PubChem BioAssay (NCI).
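Compound exposure: 48 hours, 5 concentrations, 96-well plates. TGI denotes the concentration required for complete inhibition of growth.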

Columns and labels:
Assay in all cases: growth of human tumour cells (NCI), 48 h
BT-549 breast = system: BT-549 breast
DU-145 prostate = system: DU-145 prostate
T-47D breast = system: T-47D breast
NCI-H226 lung = system: NCI-H226 lung
SF-268 CNS = system: SF-268 CNS
NCI-H460 lung = system: NCI-H460 lung

| Compound | TGI (BT-549 breast) | TGI (DU-145 prostate) | TGI (T-47D breast) | TGI (NCI-H226 lung) | TGI (SF-268 CNS) | TGI (NCI-H460 lung) |
| --- | --- | --- | --- | --- | --- | --- |
| CC1(C)OC(=S)N(c2ccccc2)C12C=Cc1ccccc1O2 (centres undefined) | > 100 µM | > 100 µM | 82.4 µM | > 100 µM | > 100 µM | > 100 µM |
| CC(=O)Oc1ccc(/C=C/C(=O)OCCCOC(=O)/C=C/c2ccc(OC(C)=O)c(OC(C)=O)c2)cc1OC(C)=O | > 100 µM | > 100 µM | > 100 µM |  | > 100 µM | > 100 µM |
| C[C@]12C[C@@H](OC(=O)[C@]1(C)O)[C@@H]([C@]1(O)CC[C@H]3[C@@H]4C[C@H]5O[C@]56C[C@H]5O[C@H]5C(=O)[C@]6(C)[C@H]4CC[C@@]31C)C2 |  | > 50 µM | > 50 µM | > 50 µM | > 50 µM | > 50 µM |
| N#Cc1c2c(c(N)oc1=O)C(c1ccccc1)CC(=O)N2 (centres undefined) | > 100 µM | > 100 µM | > 100 µM | > 100 µM | > 100 µM | > 100 µM |
| c1cnc2c(c1)ccc1cccnc12 | > 100 µM | > 100 µM | > 100 µM | > 23.5 µM | > 100 µM | 7.98 µM |
| Cc1cn(CCCCC2=NCCCN2)c(=O)[nH]c1=O | > 20.5 µM | > 34.4 µM | > 23.9 µM | > 81.3 µM | > 24.2 µM | > 67.8 µM |
| COC(=O)/C=C(\CC(=O)OC)n1nnnc1[C@@H]1C[C@H](COC(c2ccccc2)(c2ccccc2)c2ccccc2)[C@H]2OC(C)(C)O[C@H]21 |  | > 100 µM | > 100 µM | > 100 µM | > 100 µM |  |
| Cc1ccc(NC(=O)c2cc(S(=O)(=O)Nc3n[nH]c(=O)[nH]3)c(SSc3cc(Cl)c(C(=O)Nc4ccc(C)cc4)cc3S(=O)(=O)Nc3n[nH]c(=O)[nH]3)cc2Cl)cc1 | > 100 µM |  |  | > 100 µM | > 100 µM | > 100 µM |
| Cc1ccc2nc(N/N=C/c3sccc3C)cc(C)c2c1 | > 100 µM | > 100 µM | > 100 µM | > 100 µM | > 100 µM |  |
| NC(=O)C(=CNC(=S)Nc1ccccc1)C(N)=O |  | > 100 µM | > 100 µM | > 100 µM | > 100 µM | > 100 µM |
| CC1=NC(=Cc2ccccc2O)C(=O)N1n1c(-c2ccccc2)nc2ccccc2c1=O | > 100 µM | > 100 µM | > 100 µM | > 100 µM | > 100 µM | > 100 µM |
| COc1ccc(Oc2cccc(C3C4C(=O)N(c5ccc(C)c(Cl)c5)C(=O)C4ON3C(C(N)=O)c3ccccc3)c2)cc1 (centres undefined) |  | 44.5 µM | 33 µM | 44.8 µM | > 50 µM | > 50 µM |
| CC1=C(O)C2=C(C(=O)C1=O)[C@@H](C)CC[C@@H]2[C@@H](C)C/C=C/C(C)(C)O |  | > 100 µM | 78.2 µM | > 100 µM | > 100 µM | > 100 µM |
| O=[N+]([O-])/C(C(Cl)=C(Cl)Cl)=C(/Cl)SCc1ccccc1 |  | 32.5 µM | 39.2 µM | 56.7 µM | 44.6 µM | 31.2 µM |
| CCOC(=O)C1(F)S(=O)(=O)OCCOS1(=O)=O | > 100 µM | > 100 µM | > 100 µM | > 100 µM | > 100 µM |  |
| CCOC(=O)NNC(=O)NCc1cccc(CNC(=O)NNC(=O)OCC)c1 | > 100 µM | > 100 µM | > 100 µM | > 100 µM | > 100 µM | > 100 µM |

| Compound | TGI (BT-549 breast) | TGI (DU-145 prostate) | TGI (T-47D breast) | TGI (NCI-H226 lung) | TGI (SF-268 CNS) | TGI (NCI-H460 lung) |
| --- | --- | --- | --- | --- | --- | --- |
| CC1CN=C(N(Cc2ccccc2)C(=O)Nc2ccc(Cl)c(Cl)c2)S1 (centres undefined) |  | > 100 µM | > 100 µM |  | > 100 µM | > 100 µM |
| O=[N+]([O-])c1ccc(-c2nc3ccc(Cl)cc3[nH]2)cc1 | > 100 µM | > 100 µM | > 100 µM | > 100 µM | > 100 µM | > 100 µM |
| O=c1c2cc(S(=O)(=O)O)ccc2nc(COc2ccc(Oc3ccc(Cl)cc3Cl)cc2)n1-c1ccc(Oc2ccc(Cl)cc2)cc1Cl | 34.3 µM | > 100 µM | > 100 µM | 48.9 µM | 26 µM | 32.8 µM |
| O=C(/C=C/c1ccc(Oc2cc(C(=O)/C=C/c3ccc(O)cc3)c(O)cc2O)cc1)c1ccc(O)cc1O | 39.3 µM | 12.8 µM | 27.4 µM |  | 28.3 µM | 29.8 µM |
| c1ccc2oc(-c3ccc(-c4nc5ccccc5o4)c4c3CC4)nc2c1 | > 100 µM | > 100 µM | > 100 µM | > 100 µM | > 100 µM | > 100 µM |
| CCOC(=O)C(C(=O)OCC)=C1NC2(c3ccccc3Nc3ccccc32)C(C#N)S1 (centres undefined) | 27.5 µM | 28.4 µM | 25.5 µM | 26.2 µM | 39 µM | 15.2 µM |
| COC(=O)c1ccc2c(c1)S/C(=C/c1ccc3ccc4cccc5ccc1c3c45)S2 | > 100 µM | > 100 µM | > 100 µM | > 100 µM | > 100 µM | > 100 µM |
| N#Cc1nc(-c2ccco2)oc1N | > 10 µM | > 10 µM | > 10 µM | > 10 µM | > 10 µM | > 10 µM |
| O=C(NC1CCN(Cc2ccccc2)CC1)c1ccc(I)cc1 | > 100 µM | > 100 µM | > 100 µM | > 100 µM | > 100 µM | > 100 µM |
| O=C(/C=C/c1ccccc1)Oc1ccc(C(=O)/C=C/c2ccc(Cl)cc2)cc1 | > 100 µM | > 100 µM | > 100 µM |  | > 100 µM | > 100 µM |
| CCOC(=O)N1N=C(/C(C)=N/OC)C(C)S1=O (centres undefined) | > 100 µM | > 100 µM | > 100 µM | > 100 µM | > 100 µM | > 100 µM |
| Nc1ncnc2oc(C3OC(COC(=O)c4ccccc4)C(OC(=O)c4ccccc4)C3OC(=O)c3ccccc3)nc12 (centres undefined) | > 100 µM | > 100 µM | > 100 µM | > 100 µM | > 100 µM | > 100 µM |
| C[N+](C)(C)c1ncnc2c1ncn2C1CC(O)C(CO)O1 (centres undefined) | > 100 µM | > 100 µM | > 100 µM | > 100 µM | > 100 µM | > 100 µM |
| COc1ccc(/C=N/n2c(C)n[nH]c2=O)c(OC)c1 | > 100 µM | > 100 µM | > 100 µM | > 100 µM | > 100 µM | > 100 µM |
| COC(=O)c1c(C)n([O-])c2cc(Cl)c(Cl)cc2[n+]1=O | > 100 µM | 38.4 µM | > 100 µM |  | > 100 µM | 29.2 µM |
